According to patent US5712397A, “Amino acid derivatives, processes for preparing them and pharmaceutical compositions containing these compounds” (Boehringer Ingelheim GmbH, priority 1994, dated 1998):

Biological target: T1, NK1-receptor (substance P-receptor) (Homo sapiens, UniProt P25103)
T1 construct: expressed in transfected cells; host or cells: IM-9 human lymphoblastoma cells
Experiment: NK1-receptor affinity: displacement of 125I-labelled substance P on human lymphoblastoma cells (IM-9) with cloned NK1-receptors
Type: binding
Protocol: The receptor affinity for the NK1 -receptor (substance P-receptor) was determined on human lymphoblastoma cells (IM-9) with cloned NK1 -receptors, by measuring the displacement of ^125 I-labelled substance p.

T1 sequence (P25103 whole entry): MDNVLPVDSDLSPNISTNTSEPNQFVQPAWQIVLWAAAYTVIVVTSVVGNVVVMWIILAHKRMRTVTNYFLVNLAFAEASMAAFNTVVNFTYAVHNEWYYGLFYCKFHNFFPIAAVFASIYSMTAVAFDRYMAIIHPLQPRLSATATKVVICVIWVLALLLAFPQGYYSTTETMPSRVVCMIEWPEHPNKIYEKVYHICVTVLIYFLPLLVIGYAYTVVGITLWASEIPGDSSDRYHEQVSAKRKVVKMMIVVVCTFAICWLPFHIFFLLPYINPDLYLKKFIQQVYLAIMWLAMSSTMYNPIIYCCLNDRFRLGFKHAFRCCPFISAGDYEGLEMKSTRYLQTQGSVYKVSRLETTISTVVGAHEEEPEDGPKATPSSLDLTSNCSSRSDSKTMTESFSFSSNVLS

| Structure (SMILES) | IC50 [pM] |
| --- | --- |
| COc1cc2c(cc1OC)N(Cc1ccccc1Cl)C(=O)C(NC(=O)[C@@H]1C[C@@H](O)CN1C(=O)c1cn(C)c3ccccc13)C2 (single isomer, unassigned) [Example 1] | 400 |
| CCc1ccccc1CN1C(=O)C(NC(=O)[C@@H]2C[C@@H](O)CN2C(=O)c2cn(C)c3ccccc23)Cc2cc(OC)c(OC)cc21 (single isomer, unassigned) [Example 6] | 750 |
